Laboratory results published in patent US20100055113A1, “CELLULAR RECEPTOR FOR ANTIPROLIFERATIVE FACTOR” (The University of Maryland, Baltimore, priority 2006, published 2010).
Ends that are not written are not given here. glycan = not defined here

T1: CKAP4/p63 (Homo sapiens, UniProt Q07065)
T1 construct: endogenous in cells; host or cells: explanted primary normal human bladder epithelial cells
T1 sequence (Q07065 1-602): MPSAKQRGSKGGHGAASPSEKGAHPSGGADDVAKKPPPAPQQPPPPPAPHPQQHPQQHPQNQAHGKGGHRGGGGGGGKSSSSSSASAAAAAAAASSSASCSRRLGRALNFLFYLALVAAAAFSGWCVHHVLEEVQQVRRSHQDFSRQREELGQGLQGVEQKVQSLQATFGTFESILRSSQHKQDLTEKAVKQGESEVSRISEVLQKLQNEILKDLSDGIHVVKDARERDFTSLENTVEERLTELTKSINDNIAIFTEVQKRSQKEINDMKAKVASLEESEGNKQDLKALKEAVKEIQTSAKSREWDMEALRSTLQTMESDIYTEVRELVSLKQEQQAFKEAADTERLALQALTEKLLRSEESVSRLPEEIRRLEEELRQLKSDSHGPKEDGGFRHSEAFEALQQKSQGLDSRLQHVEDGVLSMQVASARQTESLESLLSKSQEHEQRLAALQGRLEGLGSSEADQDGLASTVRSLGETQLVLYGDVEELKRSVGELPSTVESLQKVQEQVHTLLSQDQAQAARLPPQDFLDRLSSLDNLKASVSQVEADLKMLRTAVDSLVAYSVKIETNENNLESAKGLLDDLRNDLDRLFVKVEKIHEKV

T2: cytoskeleton-associated protein 4/p63 (CKAP4/p63) (human, UniProt Q07065 1-602)
T2 sequence: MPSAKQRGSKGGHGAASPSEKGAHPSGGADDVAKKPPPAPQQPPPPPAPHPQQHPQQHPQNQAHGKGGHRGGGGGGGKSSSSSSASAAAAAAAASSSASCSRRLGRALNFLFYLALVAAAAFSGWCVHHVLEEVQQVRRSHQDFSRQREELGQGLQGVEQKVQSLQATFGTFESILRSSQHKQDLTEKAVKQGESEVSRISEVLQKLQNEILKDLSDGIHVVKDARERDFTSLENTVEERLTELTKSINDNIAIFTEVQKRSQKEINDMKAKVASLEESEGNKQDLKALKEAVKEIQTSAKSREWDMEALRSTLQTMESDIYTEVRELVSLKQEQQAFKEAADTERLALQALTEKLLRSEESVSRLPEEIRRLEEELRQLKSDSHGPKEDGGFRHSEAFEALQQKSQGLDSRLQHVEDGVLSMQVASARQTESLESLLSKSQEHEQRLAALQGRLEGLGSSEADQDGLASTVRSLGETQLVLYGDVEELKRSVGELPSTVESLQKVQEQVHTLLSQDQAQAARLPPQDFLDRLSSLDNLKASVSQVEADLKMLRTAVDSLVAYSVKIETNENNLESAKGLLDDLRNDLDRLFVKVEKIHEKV


Key:
CKAP4/p63 [1] = biological target: T1, CKAP4/p63; assay: Sensitivity of siRNA-electroporated normal bladder epithelial cells to APF (thymidine incorporation); assay type: cell-based; details: electroporation with siRNA, FIG. 5B
Description: Cell proliferation was measured by ^3H-thymidine incorporation into explanted normal human bladder epithelial cells, as previously described (Keay et al., 2004; Keay et al., 1996). Briefly, purified lyophilized synthetic APF was resuspended in acetonitrile/distilled water (1:1), diluted in serum-free MEM (containing only glutamine and antibiotics/antimycotics), and applied to the cells; cell controls received acetonitrile/distilled water diluted in serum-free MEM alone. Cells were then incubated at 37° C. in a 5% CO2 atmosphere for 48 hours. The cell contents harvested and methanol-fixed onto glass fiber filter paper, and the amount of radioactivity incorporated determined. Significant inhibition of 3H-thymidine incorporation was defined as a mean decrease in counts per minute of greater than 2 standard deviations from the mean of control cells for each plate. Double stranded siRNA corresponding to nucleotides 594-616 ([NT] sense strand; SEQ ID NO:5) of CKAP4/p63 (NM-006825) and a scrambled double stranded negative control siRNA ([NT] sense strand; SEQ ID NO:13) were prepared by preincubating single-stranded sense and anti-sense strands prepared with double A overhangs in serum-free MEM medium at 37° C. for 1 hour. […]

CKAP4/p63 [2] = assay: Western blot of CKAP4/p63 protein expression after siRNA electroporation; assay type: cell-based, human; details: normal bladder epithelial cells, electroporation with siRNA; FIG. 5A
Description: Solubilized high affinity APF-binding bladder epithelial cell proteins were prepared as described above. Solubilized bladder epithelial cell membrane proteins were prepared by rinsing cells in the culture flasks with ice cold PBS, then scraping the cells into ice-cold extraction buffer (20 mM Tris/HCL, pH 7.4, containing 50 μg/ml PMSF, 2 μg/ml aprotinin, 100 μM tosyl-lysine-chloromethyl-ketone, 1 μM pepstatin A, and 1 μg/ml diisopropylfluorophosphate). The cell slurry was then vortexed until homogeneous, and centrifuged at 4° C. for 10 minutes at 14,000 rpm. Supernatant was removed, and the pelleted membrane fraction was washed once with ice cold extraction buffer, repelleted, and proteins were solubilized using ice cold extraction buffer containing 1% Triton X-100. Solubilized total cell proteins were extracted into ice cold RIPA buffer containing 1.0% NP40, as previously described (Keay et al., 2003). Protein concentration of solubilized protein samples was measured using a Folin reagent-based protein assay kit (Bio-Rad). […]

[3] = test system: normal human bladder epithelial cells; assay: 3H-thymidine incorporation cell proliferation assay; assay type: cell-based
Description: Cell proliferation was measured by ^3H-thymidine incorporation into explanted normal human bladder epithelial cells, as previously described (Keay et al., 2004; Keay et al., 1996). Briefly, purified lyophilized synthetic APF was resuspended in acetonitrile/distilled water (1:1), diluted in serum-free MEM (containing only glutamine and antibiotics/antimycotics), and applied to the cells; cell controls received acetonitrile/distilled water diluted in serum-free MEM alone. Cells were then incubated at 37° C. in a 5% CO2 atmosphere for 48 hours. The cell contents harvested and methanol-fixed onto glass fiber filter paper, and the amount of radioactivity incorporated determined. Significant inhibition of 3H-thymidine incorporation was defined as a mean decrease in counts per minute of greater than 2 standard deviations from the mean of control cells for each plate.

[4] = test system: normal human bladder epithelial cells; details: bladder epithelial cell proliferation; background statement; cited from earlier work
[5] = biological target: T2, cytoskeleton-associated protein 4/p63 …; assay: cell-based or functional assay

decrease in sensitivity of the cells to APF (CKAP4/p63 [1])	Molecule	CKAP4/p63 protein expression relative to beta actin (CKAP4/p63 [2])	also measured
approximately one thousand-fold	5′-AACUUUUGAGUCCAUCUUGAGAA-3′ sense strand [double-stranded siRNA for CKAP4/p63]	decreased protein expression of CKAP4/p63 relative to beta actin	
no decrease in sensitivity to APF	5′-AAUUCUGUAUGCUA CCUGUAGAA-3′ sense strand [scrambled siRNA, reference compound]	little or no change	
	biotinylated synthetic APF: APF biotinylated on the C-terminal lysine residue, carrying Galβ1-3GalNAcα-O-threonine (TVPAAVVVAK)		antiproliferative activity as compared to the parent synthetic GalNAcβ1-3Gal-APF congener ([3]; primary normal bladder epithelial cells): approximately 80%
	rhodamine-labeled APF: synthetic APF glycopeptide with C-terminal lysine labelled with 5(6)-Rhodamine B isothiocyanate (TVPAAVVVAK)		antiproliferative activity relative to synthetic, unlabeled APF ([3]; normal bladder epithelial cells): approximately 85%
	sialoglycopeptide inhibitor of bladder epithelial cell proliferation; nonapeptide TVPAAVVVA (SEQ ID NO:1) glycosylated on N-terminal threonine [APF, Sialic acid-galactose-N-acetylgalactosamine-threonine-valine-proline-alanine-alanine-valine-valine-valine-alanine]		potency of APF (EC50) [4]: picomolar range
	T(glycan)VPAAVVVA (reading uncertain; also: exact glycoform not given here) [synthetic APF (antiproliferative factor)]		sensitivity of the cells to APF after siRNA knockdown of CKAP4/p63 (3H-thymidine incorporation) [5]: ~1000 fold
